We go through one compound from paper PMC12406256, “Food Additives Inhibit Intestinal Drug Transporters but Have Limited Effect on In Vitro Drug Permeability” (Molecular Pharmaceutics, 2025).

What is called IC50 is the point on the concentration scale where inhibition reaches its midpoint. One may read the inhibition as the share of the control response that was lost under treatment.

The series addresses T1, OATP2B1 (Homo sapiens, UniProt O94956).
T1 construct: expressed in transfected cells; host or cells: HEK293 cells (ATCC) transduced with recombinant OATP2B1 baculovirus
T1 sequence (O94956 1-709): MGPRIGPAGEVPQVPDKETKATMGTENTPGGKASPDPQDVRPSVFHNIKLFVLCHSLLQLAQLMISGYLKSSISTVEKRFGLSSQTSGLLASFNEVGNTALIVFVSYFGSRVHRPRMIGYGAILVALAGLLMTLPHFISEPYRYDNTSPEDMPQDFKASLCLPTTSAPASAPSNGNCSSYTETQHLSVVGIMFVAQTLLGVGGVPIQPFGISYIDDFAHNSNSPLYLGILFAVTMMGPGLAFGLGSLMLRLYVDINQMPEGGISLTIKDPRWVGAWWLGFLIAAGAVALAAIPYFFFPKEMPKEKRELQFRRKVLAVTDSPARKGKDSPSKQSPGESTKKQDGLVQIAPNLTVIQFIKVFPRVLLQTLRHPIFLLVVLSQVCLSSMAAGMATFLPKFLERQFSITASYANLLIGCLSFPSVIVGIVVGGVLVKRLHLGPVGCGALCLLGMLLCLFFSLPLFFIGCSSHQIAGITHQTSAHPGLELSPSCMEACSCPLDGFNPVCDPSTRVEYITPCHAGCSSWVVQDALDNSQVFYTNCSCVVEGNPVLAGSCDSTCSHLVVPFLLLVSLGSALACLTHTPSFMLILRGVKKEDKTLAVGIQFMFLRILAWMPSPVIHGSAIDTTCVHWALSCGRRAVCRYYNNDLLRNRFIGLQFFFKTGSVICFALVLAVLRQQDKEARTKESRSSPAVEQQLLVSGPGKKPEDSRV
Nature of the series: HEK293 uptake assay, OATP2B1 (5-carboxyfluorescein substrate). It is filed as cell-based. The method, then:
The inhibition of OATP2B1 was studied using a HEK293 cell-based uptake assay. HEK293 cells were cultured in DMEM supplemented with 10% FBS at 37 °C and 5% CO2 and seeded at 22,500 cells/well on 96-well plates coated with 0.1 mg/mL poly-D-lysine. After 24 h, the medium was replaced with a transduction mix (DMEM with 10% FBS, 5 mM sodium butyrate, and recombinant OATP2B1 or enhanced yellow fluorescent protein [eYFP, negative control] baculoviruses). The baculoviruses were produced as previously described. The uptake assay was performed after approximately 48 h. […] Test solutions also contained the substrate. Cells were washed with warm transport buffer and preincubated at 37 °C. Preincubation solutions were replaced with test solutions and incubated at 37 °C with shaking at 250 rpm. Transport was terminated by aspirating the test solution and washing the wells with an ice-cold transport buffer (150 μL) three times. Wells were left to dry, and cells were lysed with 0.1 M NaOH. […] Total protein concentration was measured from six random wells with a Pierce Coomassie (Bradford) Assay kit (Thermo Fisher Scientific) to ensure a similar protein concentration in the OATP2B1 and eYFP wells.

The structures appear in SMILES notation.

`CC1=C(/C=C/C(C)=C/C=C/C(C)=C/C=C/C=C(C)/C=C/C=C(C)/C=C/C2=C(C)CCCC2(C)C)C(C)(C)CCC1` [beta-carotene]: under “5-carboxyfluorescein 2 μM, HEK293 cells, pH 6, n = 3, read-out: IC50 (95% CI), OATP2B1”, the IC50 was 27.5 µM. Further, the inhibition at 50 μM (human, HEK293 cells transduced with recombinant OATP2B1 baculovirus, pH 6, probe 5-carboxyfluorescein 2 μM, food additive 50 μM, n = 1, read-out: inhibition of OATP2B1-mediated uptake) was no less than 50%.
